Measured values: PubChem BioAssay (NCI)
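The compound was tested at five concentrations on cells cultured in 96-well plates, with a 48-hour exposure period. The concentration for 50% growth inhibition is given as GI50. The concentration for full growth arrest is given as TGI.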

Legend:
Experiment in all cases: NCI-60 cell line screen, 48 h
[1] = tested on: ACHN renal
[2] = tested on: HOP-92 NSCLC
[3] = tested on: LOX IMVI melanoma
[4] = tested on: MOLT-4 leukemia
[5] = tested on: OVCAR-5 ovarian
[6] = tested on: RXF 393 renal
[7] = tested on: SNB-19 CNS
[8] = tested on: SW-620 colon

With CCCCNC(=O)CC1=C(C)/C(=C/c2[nH]c(-c3ccc[nH]3)cc2OC)N=C1C the GI50 [1] was 2.26 µM, the TGI [1] was 5.64 µM and the GI50 [2] was 2.17 µM. It also gave a TGI [2] of 7.09 µM, a GI50 [3] of 1.56 µM and a TGI [3] of 3.17 µM. For the same compound, the GI50 [4] was 1.93 µM, the TGI [4] was 9 µM and the GI50 [5] was 3.19 µM. It also gave a TGI [5] of 34.1 µM, a GI50 [6] of 3.29 µM and a TGI [6] of 11.6 µM. The GI50 [7] was 4.09 µM, the TGI [7] was 30.1 µM and the GI50 [8] was 3.23 µM. It also gave a TGI [8] of 13.9 µM.
Cc1ncnc2c1ccn2[C@@H]1C[C@H](Oc2cc(C(F)F)c(F)c3c2CNCC3)[C@@H](O)[C@H]1O was tested, and the GI50 [1] was > 100 µM, the TGI [1] was > 100 µM and the GI50 [2] was 4.68 µM. For the same compound, the TGI [2] was > 100 µM, the GI50 [3] was > 100 µM and the TGI [3] was > 100 µM. The GI50 [4] was > 100 µM, the TGI [4] was > 100 µM and the GI50 [5] was > 100 µM. For the same compound, the TGI [5] was > 100 µM, the GI50 [6] was > 100 µM and the TGI [6] was > 100 µM. The GI50 [7] was > 100 µM, the TGI [7] was > 100 µM and the GI50 [8] was > 100 µM. The TGI [8] was > 100 µM.
In the case of CN(C)Cc1ccc(O)c(CN(C)C)n1, the TGI [1] was > 100 µM, the TGI [2] was > 100 µM and the TGI [3] was > 100 µM. The TGI [4] was > 100 µM, the TGI [5] was > 100 µM and the TGI [6] was > 100 µM. For the same compound, the TGI [7] was > 100 µM and the TGI [8] was > 100 µM.
With CCNCCS(=O)(=O)NC[C@@]1(c2ccccc2)SC(NC(=O)C(C)(C)C)=NN1C(=O)C(C)(C)C the GI50 [1] was 4.9 µM, the TGI [1] was > 100 µM and the TGI [2] was > 82.1 µM. The GI50 [3] was < 0.0285 µM, the TGI [3] was > 47.3 µM and the GI50 [4] was < 0.0139 µM. The TGI [4] was > 100 µM, the GI50 [5] was 0.138 µM and the TGI [5] was > 100 µM. The GI50 [6] was < 0.0223 µM, the TGI [6] was > 62.2 µM and the TGI [7] was > 100 µM. For the same compound, the GI50 [8] was < 0.01 µM and the TGI [8] was > 100 µM.
Cc1cc(NS(=O)(=O)c2ccc(-c3cnc(C4CC4)o3)cc2)ccc1Cl showed a GI50 [1] of 0.586 µM, a TGI [1] of 14.6 µM and a GI50 [2] of 0.472 µM. The TGI [2] was 10.1 µM, the GI50 [3] was 0.386 µM and the TGI [3] was 14 µM. It also gave a GI50 [4] of 0.525 µM, a TGI [4] of 46.8 µM and a GI50 [5] of 0.748 µM. For the same compound, the TGI [5] was 15 µM, the GI50 [6] was 0.173 µM and the TGI [6] was 3.13 µM. The GI50 [7] was 0.362 µM, the TGI [7] was 16.3 µM and the GI50 [8] was 0.13 µM. For the same compound, the TGI [8] was 15 µM.
With Cn1cc(Nc2nccc(-c3ccc4c(c3)CN(C3COC3)CC[C@H]4NC(=O)c3cn(C(C)(C)C)nn3)n2)cn1 the GI50 [1] was 66.3 µM, the TGI [1] was > 100 µM and the GI50 [2] was 16 µM. The TGI [2] was 89.7 µM, the GI50 [3] was 38.5 µM and the TGI [3] was > 100 µM. For the same compound, the GI50 [4] was 89.7 µM, the TGI [4] was > 100 µM and the GI50 [5] was 45.2 µM. The TGI [5] was > 100 µM, the GI50 [6] was 26.6 µM and the TGI [6] was > 100 µM. The GI50 [7] was > 100 µM, the TGI [7] was > 100 µM and the GI50 [8] was > 100 µM. For the same compound, the TGI [8] was > 100 µM.
In the case of CN1C(=O)[C@@H](CC2CCCC2)N(C2CCCC2)c2nc(Nc3cc(Cl)c(O)c(Cl)c3)ncc21, the GI50 [1] was 18.7 µM, the TGI [1] was > 100 µM and the GI50 [2] was 13.6 µM. The TGI [2] was 66.7 µM, the GI50 [3] was 19.5 µM and the TGI [3] was 49.3 µM. For the same compound, the GI50 [4] was 12.2 µM, the TGI [4] was 56 µM and the GI50 [5] was 27.7 µM. For the same compound, the TGI [5] was > 100 µM, the GI50 [6] was 13.5 µM and the TGI [6] was 52 µM. For the same compound, the GI50 [7] was 28.3 µM, the TGI [7] was > 100 µM and the GI50 [8] was 28.2 µM. For the same compound, the TGI [8] was > 100 µM.
Work on CC(C)(Oc1cccc(N2CCC[C@@H](C(=O)N(Cc3ccc(-c4cn[nH]c4)cc3)C3CC3)C2)c1)C(=O)N1CCNCC1 yielded a GI50 [1] of 16.1 µM, a TGI [1] of 29.6 µM and a GI50 [2] of 9.9 µM. It also gave a TGI [2] of 23.8 µM, a GI50 [3] of 11.8 µM and a TGI [3] of 25 µM. It also gave a GI50 [4] of 12.1 µM, a TGI [4] of 55.8 µM and a GI50 [5] of 16.6 µM. The TGI [5] was 32.2 µM, the GI50 [6] was 1.85 µM and the TGI [6] was 8.26 µM. It also gave a GI50 [7] of 15.1 µM, a TGI [7] of 29.7 µM and a GI50 [8] of 15.5 µM. For the same compound, the TGI [8] was 31.5 µM.
For C/C(=N\O)C1CC(CC(=O)O)C1(C)C (centres undefined), the TGI [1] was > 100 µM, the TGI [2] was > 100 µM and the TGI [3] was > 100 µM. For the same compound, the TGI [4] was > 100 µM, the TGI [5] was > 100 µM and the TGI [6] was > 100 µM. The TGI [7] was > 100 µM and the TGI [8] was > 100 µM.
CCN(CC)CCOc1ccc(/C(=C(\C)Cc2ccc(OC)cc2)c2ccc(O)cc2)cc1 gave a GI50 [1] of 1.66 µM, a TGI [1] of 3.1 µM and a GI50 [2] of 0.588 µM. It also gave a TGI [2] of 2.61 µM, a GI50 [3] of 1.74 µM and a TGI [3] of 3.17 µM. It also gave a GI50 [4] of 1.5 µM, a TGI [4] of 3.52 µM and a GI50 [5] of 2.36 µM. It also gave a TGI [5] of 6.79 µM, a GI50 [6] of 1.51 µM and a TGI [6] of 2.91 µM. The GI50 [7] was 2.08 µM, the TGI [7] was 4.77 µM and the GI50 [8] was 1.7 µM. The TGI [8] was 3.37 µM.
In the case of O=C(Nc1nc2ccc(OC(F)(F)F)cc2s1)c1ccc(F)cc1, the GI50 [1] was 2.4 µM, the TGI [1] was 6.18 µM and the GI50 [2] was 3.91 µM. The TGI [2] was 8.35 µM, the GI50 [3] was 3.21 µM and the TGI [3] was 9.03 µM. It also gave a GI50 [4] of 3.08 µM, a TGI [4] of 84.9 µM and a GI50 [5] of 3.62 µM. It also gave a TGI [5] of 27.6 µM, a GI50 [6] of 2.68 µM and a TGI [6] of 13.7 µM. For the same compound, the GI50 [7] was 3.74 µM, the TGI [7] was > 100 µM and the GI50 [8] was 3.74 µM. For the same compound, the TGI [8] was > 100 µM.
CC(=O)NC(CCc1ccc(Cl)c(Cl)c1)c1cccc(O)c(=O)c1 (centres undefined) was tested, and the GI50 [1] was 0.286 µM, the TGI [1] was 31.6 µM and the GI50 [2] was 1.93 µM. For the same compound, the TGI [2] was 15.7 µM, the GI50 [3] was 0.559 µM and the TGI [3] was 7.5 µM. For the same compound, the GI50 [4] was 0.74 µM, the TGI [4] was 14.4 µM and the GI50 [5] was 1.58 µM. The TGI [5] was 21.8 µM, the GI50 [6] was 0.722 µM and the TGI [6] was 14.9 µM. It also gave a GI50 [7] of 0.919 µM, a TGI [7] of 18.8 µM and a GI50 [8] of 0.531 µM. The TGI [8] was 23.7 µM.
